# Assay results from patent US8440893B2, “Therapeutic agent for rheumatoid arthritis” (St. Marianna University School of Medicine, priority 2006, dated 2013).
# Columns and labels:
# [1] = test system: macrophages; test: Inflammatory cytokine production (ELISA), macrophages; type: cell-based, human; conditions: for Concentration of cytokines produced by macrophage, IL-1β: medium only 8.1; for Concentration of cytokines produced by macrophage, TNF-α: medium only 122
# Experimental: After obtaining informed consent, 50 mL of blood was collected from healthy individuals, and 1% heparin-added blood was acquired. Centrifuge tubes in which this blood was layered on top of a lymphocyte separation liquid were centrifuged at 1500 rpm for 30 minutes to isolate lymphocytes and macrophages individually. The cells were cultured using an RPMI medium supplemented with inactivated fetal bovine serum (FBS, manufactured by TRACE) at 10% of the medium volume, and also with 2 mM L-glutamine, 25 mM HEPES, and 100 units/mL of penicillin and streptomycin, in a CO2 incubator set at 5% CO2+95% air (normoxic conditions) at 37° C. under saturated humidity.
# Effects of C60 on the production of inflammatory cytokines in each type of cell were analyzed using the enzyme-linked immunosorbent assay method (ELISA).
# Each type of cell that was isolated and cultured to subconfluency by the above method was seeded into a 24-well culture plate at 1×10^5 cells/well. After culturing for 12 hours, the cells were washed with PBS, the medium was exchanged to fresh DMEM containing 10% FBS, and tumor necrosis factor TNF-α was added. The concentration of C60 treatment was 0.1, 1.0, or 10.0 μM, and the concentration of TNF-α treatment was 10.0 ng/mL. Each type of cell was cultured with C60 for 24 hours in the presence or absence of TNF-α, and then the culture solution was collected.
# The concentrations of inflammatory cytokines TNF-α and interleukin (IL)-1β in the culture supernatant were determined using a ELISA kit, which is a standard technique currently known in the art. The ELISA was performed by the following standard method: the diluted culture supernatant sample was added into a sensitized plate at 100 μl per well, and the plate was left still for one hour at room temperature (primary reaction). After the primary reaction, the wells were sufficiently washed with PBS using a wash bottle four times or more. Horseradish peroxidase (HRP)-labeled goat anti-rabbit IgG (H+L) antibodies that have been diluted 3,000-folds with 0.1% Tween20-PBS were dispensed into the respective wells at 100 μl each, and the plate was left still for one hour at room temperature (secondary reaction). After the secondary reaction, the wells were washed with PBS in the same manner, and then 0.8 mM TMB (Tetramethylbenzidine) solution was added thereto at 100 μl per well, to effect color development at 30° C. for five to 20 minutes (color reaction). 100 μl of 1.5 N H3PO4 was added to each well to stop the color reaction, and the absorbance at 450 nm was measured using a microtiter plate reader. According to the instructions provided by the manufacturer, the measured concentrations were calibrated using a lyophilized control reagent.
# (§1) SOD (final concentration: 10 or 100 μM) or vitamin C (final concentration: 10 or 100 μM) was added to DMEM medium. The level of inflammatory cytokines produced by macrophages and the osteoclast differentiation ability were measured by the methods of Examples 1-3 and 2-2 described above, respectively, and compared to the results obtained with C60 (10 μM) (Table 1).
# [2] = test system: osteoclast precursor cells; test: Osteoclast differentiation (TRAP staining of TRAP-positive multinucleated giant cells); type: cell-based; conditions: medium only 78
# Experimental: An osteoclast precursor cell culture kit (Cell Garage Co. Ltd.) was used to observe the effect of C60 on the differentiation of osteoclast precursor cells to mature osteoclasts.
# Using the above-mentioned osteoclast precursor cell culture kit, osteoclast precursor cells were cultured on a chamber slide in the presence of osteoclast differentiation-inducing factors. C60 was added to the medium at a final concentration of 0.1, 1.0, or 10.0 μM, and the cells were cultured for seven days. The medium, including various additional factors, was changed to a fresh one every three days. On the seventh day, TRAP-positive multinucleated giant cells, which serve as an index of osteoclast differentiation, were observed by TRAP staining (Cell Garage AK04 Lot: FEM).
# The TRAP staining method was carried out as follows. First, after confirming the formation of osteoclasts, the culture solution was removed, and the cells were washed with PBS at 100 μL/well. Next, a fixative solution (kit) was added at 50 μL/well and reacted for five minutes at room temperature. Then, the fixative solution was removed, and the cells were subjected to three washes using 250 μL/well of deionized distilled water (DDW). One vial of chromogenic substrate was dissolved by adding 5 mL of buffer to prepare a color developing solution. The above color developing solution was added at 50 μL/well and then incubated at 37° C. for 20 minutes. After confirming the color development, the color developing solution was removed, and the reaction was stopped using 250 μL/well of DDW. After washing with DDW three times in total, the wells were removed, and the slide was mounted with a water-soluble mounting medium (NUNK 178599 16-well chamber slides were used).
# as §1
# [3] = Antioxidative ability (kit utilizing the redox reaction of copper); type: biochemical
# Experimental: Various concentrations of C60, SOD, and vitamin C solutions were prepared (solvent: DEME medium, SOD (10, and 100 μM), C60 (1, 10, and 100 μM), vitamin C (100 μM)), and the antioxidative ability of each was determined using a kit for measuring antioxidative ability (OXIS Health Product, Oregon, USA) which utilizes the redox reaction of copper.
Compound,"Concentration of cytokines produced by macrophage, IL-1β ([1]; added antioxidant 10 μM)","Concentration of cytokines produced by macrophage, TNF-α ([1]; added antioxidant 10 μM)","Concentration of cytokines produced by macrophage, IL-1β ([1]; added antioxidant 100 μM)","Concentration of cytokines produced by macrophage, TNF-α ([1]; added antioxidant 100 μM)",Osteoclast differentiation ([2]; added antioxidant 10 μM),Osteoclast differentiation ([2]; added antioxidant 100 μM),ratio to the antioxidative ability of vitamin C (100 μM) ([3]; substance at 10 μM),ratio to the antioxidative ability of vitamin C (100 μM) ([3]; substance at 100 μM)
"O=C1O[C@H]([C@@H](O)CO)C(O)=C1O [Vitamin C, vitamin C]",6.9 ng/ml/1 × 10^5 cells,116 ng/ml/1 × 10^5 cells,7.5 ng/ml/1 × 10^5 cells,115 ng/ml/1 × 10^5 cells,94 TRAP-positive multinucleated giant cells/well,82 TRAP-positive multinucleated giant cells/well,,
Superoxide dismutase [SOD],9.0 ng/ml/1 × 10^5 cells,130 ng/ml/1 × 10^5 cells,7.8 ng/ml/1 × 10^5 cells,106 ng/ml/1 × 10^5 cells,82 TRAP-positive multinucleated giant cells/well,75 TRAP-positive multinucleated giant cells/well,approximately two-fold,approximately 8 fold
